Where a SMILES comes first, the peptide text is derived from it.
Legend:
glucagon secretion = assay: in vivo inhibition of glucagon secretion upon stimulation with insulin; set-up: species or system mongrel dogs; conditions: dogs; insulin 0.3 units/kg. i.v.; infusion 0.07-0.13 μg/kg/min. (D-Lys^4 at 0.150, D-Ala^2,D-Lys^4 at 0.114 μg/kg/min.)
Protocol: D-Lys^4 -somatostatin and D-Ala^2,D-Lys^4 -somatostatin also were evaluated for in vivo activity in inhibiting glucagon secretion upon stimulation with insulin. Normal mongrel dogs of either sex were fasted overnight. After control blood samples had been obtained, an intravenous infusion of saline, somatostatin, D-Lys^4 -somatostatin, or D-Ala^2,D-Lys^4 -somatostatin was commenced. After 15 minutes, insulin, 0.3 units/kg., was injected intravenously. The infusion of saline, somatostatin, or the test compound was continued for two hours, and blood samples were obtained at various intervals throughout the test. The total dose of the somatostatin or test compound ranged from 120-260 μg./dog (0.07-0.13 μg/kg/min.). Administration of insulin produced a reduction in the blood glucose concentration and an increase in serum glucagon concentration.

growth hormone secretion = assay: release of growth hormone in sodium pentobarbital-stimulated rats; type: in vivo, Spraque-Dawley rats
Protocol: D-Lys^4 -somatostatin and D-Ala^2,D-Lys^4 -somatostatin also were tested for their activity with respect to the release of growth hormone. The procedure which was employed is carried out using mature male Spraque-Dawley rats (Laboratory Supply Company, Indianapolis, Indiana). The test is a modification of the method of P. Brazeau, W. Vale, and R. Guilleman, Endocrinology, 94 184 (1974). In this assay, two sets, one comprising five groups of eight rats each and the other comprising three groups of eight rats each were employed. First, sodium pentobarbital was administered to all of the rats of a particular set to stimulate growth hormone secretion. In the set comprising five groups of eight rats, one group is the control group and received only saline. Two of the groups received somatostatin, one at 2 μg./rat, subcutaneously, and the other at 50 μg./rat, subcutaneously. The other two groups received D-Ala^2,D-Lys^4 -somatostatin, one at 2 μg./rat, subcutaneously and the other at 50 μg./rat, subcutaneously. The degree of inhibition of serum growth hormone concentration then was determined with respect to the control group, and the relative activities of D-Ala^2,D-Lys^4 -somatostatin and somatostatin itself were compared.
The other set of three groups of eight rats each was treated in the same manner as above, with the exception the D-Lys^4 -somatostatin was used in place of D-Ala^2,D-Lys^4 -somatostatin, and the test was carried out only at a 50 μg./rat dose level. The D-Lys^4 -somatostatin stimulated growth hormone secretion by about 8 percent over control, while somatostatin in this set inhibited growth hormone secretion by 70 percent over control.

gastric HCl secretion = assay: in vivo inhibition of gastric acid secretion in dogs with chronic gastric fistula and Heidenhain pouch; conditions: infused at 3 μg/kg-hr. for one hour, secretion induced by C-terminal tetrapeptide of gastrin 0.5 μg/kg-hr
Protocol: D-Lys^4 -somatostatin and D-Ala^2,D-Lys^4 -somatostatin also were tested in dogs for their in vivo inhibition of gastric acid secretion. In dogs with chronic gastric fistula and Heidenhain pouch, gastric HCl secretion was induced by infusion of the C-terminal tetrapeptide of gastrin at 0.5 μg/kg-hr. One dog served as control, receiving only the tetrapeptide. Another dog received the tetrapeptide and somatostatin while the test compound was administered to other dogs in place of somatostatin. After one hour of steady state secretion of HCl, somatostatin or the test compound was infused at 3 μg/kg-hr. for one hour. Collection of gastric acid samples was continued for an additional 1.5 hours at 15 minute intervals.

[1] = system: glucagon and insulin secretion; assay: in vivo inhibition of glucagon and insulin secretion upon stimulation with L-alanine; set-up: species or system mongrel dogs; conditions: dogs
Protocol: D-Ala^2,D-Lys^4 -somatostatin was tested for its in vivo activity in inhibiting glucagon and insulin secretion upon stimulation with L-alanine. Normal mongrel dogs of either sex were fasted overnight. Control blood samples were obtained, and then an intravenous infusion of saline, somatostatin, or D-Ala^2,D-Lys^4 -somatostatin was started. After 30 minutes, L-alanine additionally was administered intravenously for a period of 15 minutes. The infusion of saline, somatostatin, or D-Ala^2,D-Lys^4 -somatostatin was continued for 15 minutes after completion of the alanine infusion. The total dose of somatostatin or D-Ala^2,D-Lys^4 -somatostatin which was infused is 200-500 μg./dog (0.20-0.30 μg/kg./minute), and the total dose of L-alanine infused was 1 mmol/kg.

pancreatic secretion = assay: inhibition of secretin-induced pancreatic secretion in dogs with pancreatic and total gastric fistula; type: in vivo; conditions: 3 μg/kg-hr for one hour, secretin 0.5 unit/kg-hr.
Protocol: D-Ala^2,D-Lys^4 -somatostatin was also shown to inhibit pancreatic secretion. In three dogs having both pancreatic and total gastric fistula, secretion from the pancreas was induced by infusion of secretin at 0.5 unit/kg-hr. and gastric HCl by infusion of tetragastrin at 0.5 μg/kg-hr. After a steady response was established, administration of the test compound was begun. One of the dogs was retained as control, and, of the remaining two dogs, one received somatostatin and the other D-Ala^2,D-Lys^4 -somatostatin, each for one hour at 3 μg/kg-hr.Peak inhibitory effects expressed as percent changes over control are as follows: […]

[2] = intravenous infusion 0.20-0.30 μg/kg./minute (D-Ala^2,D-Lys^4 -somatostatin at 0.253 μg/kg/min.), L-alanine 1 mmol/kg

Compound | effect on the increase in serum glucagon concentration produced by insulin administration (glucagon secretion) | stimulation of growth hormone secretion over control (growth hormone secretion; 50 μg./rat, set of three groups) | inhibition of gastric acid secretion relative to the control (gastric HCl secretion) [%] | effect on basal serum insulin concentration ([1]; intravenous infusion 0.20-0.30 μg/kg./minute (D-Ala^2,D-Lys^4 -somatostatin at 0.253 μg/kg/min.)) | effect on the rise in serum glucagon concentration during infusion of L-alanine [1, 2] | effect on the rise in serum insulin concentration during infusion of L-alanine [1, 2] | effect on basal secretion of glucagon ([1]; intravenous infusion at 0.253 μg/kg/min.) | stimulation of growth hormone secretion over control (growth hormone secretion; 2 μg./rat, subcutaneously, set of five groups) [%] | stimulation of growth hormone secretion over control (growth hormone secretion; 50 μg./rat, subcutaneously, set of five groups) [%] | Pancreatic Secretion HCO3^-, peak inhibitory effect as percent change over control (pancreatic secretion) [%] | Pancreatic Secretion Protein, peak inhibitory effect as percent change over control (pancreatic secretion) [%] | Pancreatic Secretion Volume, peak inhibitory effect as percent change over control (pancreatic secretion) [%]
C[C@H](N)C(=O)NCC(=O)N[C@H]1CSSC[C@@H](C(=O)O)NC(=O)[C@H](CO)NC(=O)[C@H]([C@@H](C)O)NC(=O)[C@H](Cc2ccccc2)NC(=O)[C@H]([C@@H](C)O)NC(=O)[C@H](CCCCN)NC(=O)[C@H](Cc2c[nH]c3ccccc23)NC(=O)[C@H](Cc2ccccc2)NC(=O)[C@H](Cc2ccccc2)NC(=O)[C@H](CC(N)=O)NC(=O)[C@@H](CCCCN)NC1=O [D-Lys^4 -somatostatin] | neither inhibited | about 8% | 87.3 |  |  |  |  |  |  |  |  | 
C[C@H](N)C(=O)N[C@H](C)C(=O)N[C@H]1CSSC[C@@H](C(=O)O)NC(=O)[C@H](CO)NC(=O)[C@H]([C@@H](C)O)NC(=O)[C@H](Cc2ccccc2)NC(=O)[C@H]([C@@H](C)O)NC(=O)[C@H](CCCCN)NC(=O)[C@H](Cc2c[nH]c3ccccc23)NC(=O)[C@H](Cc2ccccc2)NC(=O)[C@H](Cc2ccccc2)NC(=O)[C@H](CC(N)=O)NC(=O)[C@@H](CCCCN)NC1=O [D-Ala^2,D-Lys^4 -somatostatin, D-Ala^2, D-Lys^4 -somatostatin] (HELM PEPTIDE1{A.[dA].C.[dK].N.F.F.W.K.T.F.T.S.C}$PEPTIDE1,PEPTIDE1,3:R3-14:R3$$$V2.0) | neither inhibited |  | 50.9 | slight decrease | partial inhibition | partial inhibition | slight decrease | 114 | ~200 | -68 | -55.4 | -61

— patent publication US4061626A, “Somatostatin analogs and intermediates thereto” (Eli Lilly and Company, priority 1976, dated 1977)
